Active and inactive are the calls of the source. No cut-off for these calls is given here.

The first assay relates to HSC-2. The assay is described as follows: Cytotoxicity against human HSC2 cells assessed as cell viability after 24 hrs. The assay is classed as functional, cell-based. Conditions: HSC-2, 24 h.
Turning to `CCC(=O)[C@@H]1C[C@@H](C)[C@]2(CC[C@@]3(C)C4=C(CC[C@@]32C)[C@@]2(C)CC[C@H](O[C@@H]3O[C@H](CO[C@@H]5OC[C@H](O)[C@H](O)[C@H]5O[C@@H]5O[C@H](CO)[C@@H](O)[C@H](O)[C@H]5O[C@@H]5O[C@@H](C)[C@H](O)[C@@H](O)[C@H]5O)[C@@H](O)[C@H](O)[C@H]3O)[C@](C)(CO)[C@@H]2CC4)O1`, the IC50 (in general, the concentration that inhibits the measured activity by half) worked out at 32 µM. As to `CCC(=O)[C@@H]1C[C@@H](C)[C@]2(CC[C@@]3(C)C4=C(CC[C@@]32C)[C@@]2(C)CC[C@H](O[C@@H]3O[C@H](CO[C@@H]5OC[C@H](O)[C@H](O)[C@H]5O[C@@H]5O[C@H](CO)[C@@H](O)[C@H](O[C@@H]6OC[C@H](O)[C@H](O)[C@H]6O[C@@H]6OC[C@@H](O)[C@H](O)[C@H]6O)[C@H]5O[C@@H]5O[C@@H](C)[C@H](O)[C@@H](O)[C@H]5O)[C@@H](O)[C@H](O)[C@H]3O)[C@](C)(CO)[C@@H]2CC4)O1`, the IC50 came to 7.3 µM. With `CCC(=O)[C@@H]1C[C@@H](C)[C@]2(CC(=O)[C@@]3(C)C4=C(CC[C@@]32C)[C@@]2(C)CC[C@H](O[C@@H]3O[C@H](CO[C@@H]5OC[C@H](O)[C@H](O)[C@H]5O[C@@H]5O[C@H](CO)[C@@H](O)[C@H](O)[C@H]5O[C@@H]5OC[C@](O)(CO)[C@H]5O)[C@@H](O)[C@H](O)[C@H]3O)[C@](C)(CO)[C@@H]2CC4)O1`, the IC50 was found to be 6.2 µM. In the case of `CCC(=O)[C@@H]1C[C@@H](C)[C@]2(CC(=O)[C@@]3(C)C4=C(CC[C@@]32C)[C@@]2(C)CC[C@H](O[C@@H]3O[C@H](CO[C@@H]5OC[C@H](O)[C@H](O)[C@H]5O[C@@H]5O[C@H](CO)[C@@H](O)[C@H](O)[C@H]5O[C@@H]5O[C@@H](C)[C@H](O)[C@@H](O)[C@H]5O)[C@@H](O)[C@H](O)[C@H]3O)[C@](C)(CO)[C@@H]2CC4)O1`, the IC50 came out at 63 µM. Consider `CCC(=O)[C@@H]1C[C@@H](C)[C@]2(CC(=O)[C@@]3(C)C4=C(CC[C@@]32C)[C@@]2(C)CC[C@H](O[C@@H]3O[C@H](CO[C@@H]5OC[C@H](O)[C@H](O)[C@H]5O[C@@H]5O[C@H](CO)[C@@H](O)[C@H](O[C@@H]6OC[C@H](O)[C@H](O)[C@H]6O[C@@H]6OC[C@@H](O)[C@H](O)[C@H]6O)[C@H]5O[C@@H]5O[C@@H](C)[C@H](O)[C@@H](O)[C@H]5O)[C@@H](O)[C@H](O)[C@H]3O)[C@](C)(CO)[C@@H]2CC4)O1`, for which the IC50 worked out at 19 µM.

The test system of a further assay is HSC-2. The assay is described as follows: Cytotoxicity against human HSC2 cells assessed as cell viability up to 100 uM after 24 hrs. The assay is classed as functional, cell-based.
Settings: not given
With `CCC(=O)[C@H]1C[C@@H](C)[C@]2(CC(=O)[C@@]3(C)C4=C(CC[C@@]32C)[C@@]2(C)CC[C@H](O[C@@H]3O[C@H](CO[C@@H]5OC[C@H](O)[C@H](O)[C@H]5O[C@@H]5O[C@H](CO)[C@@H](O)[C@H](O)[C@H]5O[C@@H]5OC[C@](O)(CO)[C@H]5O)[C@@H](O)[C@H](O)[C@H]3O)[C@](C)(CO)[C@@H]2CC4)O1`, the result was inactive. For the compound `CCC(=O)[C@H]1C[C@@H](C)[C@]2(CC(=O)[C@@]3(C)C4=C(CC[C@@]32C)[C@@]2(C)CC[C@H](O[C@@H]3O[C@H](CO[C@@H]5OC[C@H](O)[C@H](O)[C@H]5O[C@@H]5O[C@H](CO)[C@@H](O)[C@H](O[C@@H]6OC[C@H](O)[C@H](O)[C@H]6O[C@@H]6OC[C@@H](O)[C@H](O)[C@H]6O)[C@H]5O[C@@H]5O[C@@H](C)[C@H](O)[C@@H](O)[C@H]5O)[C@@H](O)[C@H](O)[C@H]3O)[C@](C)(CO)[C@@H]2CC4)O1`, the outcome was inactive. For the compound `CCC(=O)[C@H]1C[C@@H](C)[C@]2(CC(=O)[C@@]3(C)C4=C(CC[C@@]32C)[C@@]2(C)CC[C@H](O[C@@H]3O[C@H](CO[C@@H]5OC[C@H](O)[C@H](O)[C@H]5O[C@@H]5O[C@H](CO)[C@@H](O)[C@H](O)[C@H]5O[C@@H]5O[C@@H](C)[C@H](O)[C@@H](O)[C@H]5O)[C@@H](O)[C@H](O)[C@H]3O)[C@](C)(CO)[C@@H]2CC4)O1`, the outcome was inactive.

The record behind these values is ChEMBL document CHEMBL1148985, “27-norlanostane glycosides from the bulbs of Muscari paradoxum” (J Nat Prod, 2004).
